Measured values taken from US20220338769A1, “METHODS AND APPARATUS FOR SUBSTANCE DELIVERY IN AN IMPLANTABLE DEVICE” (GlySens Incorporated, priority 2021, published 2022).

Assays:
[1] = cited from earlier work
[2] = Expected patient plasma DXA at the exemplary elution rates; type: in vivo; details: below LOQ
Description: With a manufacturing process that consists of at least two months (60 days) from the start of elution until implant, and using data from in vitro release testing, a daily release of between approximately 2 and 5 μg DXA in one exemplary embodiment is expected over the life of the implant (average of approximately 3 μg/day). These exemplary elution rates are within range of the elution rates seen in the above-referenced predicate devices. At these elution rates, it can be reasonably expected that patient plasma DXA levels to be below the 50 pg/mL LOQ. The full modeled release profile is shown in FIG. 2, which illustrates total release 212 of DXA from the implantable sensor device accumulating prior to implantation with, daily release 214 of DXA from the implantable sensor starting at a rate of approximately 4.8 μg per day upon implantation and gradually reducing to below 2.0 μg/day over the period of implantation. In other embodiments, DSP, other dexamethasone compounds, and/or other eluting anti-inflammatory drugs may be used similarly.

[3] = human, in vivo
[4] = cited from earlier work; remark: listed apart in the source

| expected patient plasma DXA levels [2] | daily dose required to have a DXA level greater than the LOQ in plasma [3] | Structure (SMILES) | water solubility [1] | plasma DXA ([4]; one device implanted, no measurable DXA, LOQ = 50 pg/mL) | maximum reported plasma DXA ([4]; two devices implanted) | time DXA measurable in plasma after implant ([4]; two devices implanted, some patients) |
| --- | --- | --- | --- | --- | --- | --- |
| – | – | C[C@@H]1C[C@H]2[C@@H]3CCC4=CC(=O)C=C[C@]4(C)[C@@]3(F)[C@@H](O)C[C@]2(C)[C@@]1(O)C(=O)COP(=O)(O)O [DSP, dexamethasone sodium phosphate] | highly water soluble | – | – | – |
| < 50 pg/mL | ≥ 15 µg | CC(=O)OCC(=O)[C@@]1(O)[C@H](C)C[C@H]2[C@@H]3CCC4=CC(=O)C=C[C@]4(C)[C@@]3(F)[C@@H](O)C[C@@]21C [DXA, dexamethasone acetate] | – | < 50 pg/mL | 114 pg/mL | up to 8 days |
